Key:
SUDHL10 [1] = test: Induction of caspase-3/7 activity, SUDHL10 (Assay 4); assay type: cell-based; conditions: Homo sapiens, SU-DHL10, 3 h, SUDHL10 cells, Caspase-Glo 3/7, median
In short: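 DLBCL lines treated with compounds for 3 h at 37° C.; caspase-3/7 activity read by Caspase-Glo 3/7 luminescence. Medium-only background subtracted; EC50 fitted with bottom fixed at 1 and top set to reference compound's maximal induction.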

SUDHL5 = test: Antiproliferation assay SUDHL5 (Assay 7); assay type: cell-based; conditions: Homo sapiens, SU-DHL-5, 72 h, SUDHL5 cells, CellTiter-Glo, median, read-out: IC50 Antiproli SUDHL5 [M] (median)
In short: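 Cells were incubated with compounds for 72 h at 37°C. Viability was then read by CellTiter-Glo luminescence, and a parallel day 0 plate read the same way gave the time-zero signal.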

BCL-XL = BCL-XL (Homo sapiens (Human), UniProt Q07817); test: Protein-protein interaction assay BCL-XL/Bad BH3 peptide (BCL-XL assay), TR-FRET; assay type: binding; conditions: median
Method: Assay 2 Protein-Protein Interaction Assay: BCL-XL/Bad BH3 Peptide (BCL-XL Assay)
The dose-dependent inhibition by the compounds described in this invention of the interaction between BCL-XL and the BH3 domain of Bad (both human) was determined using a steady state binding competition assay with time-resolved fluorescence energy transfer (TR-FRET) readout. For that purpose BCL-XL (amino acids 1-212, C-terminal fused to a hexahistidine (6× His) tag (SEQ ID 3) and a synthetic Bad BH3-derived peptide of sequence Biotin-PEG2-PEG2-NLWAAQRYGRELRR-Nle-SDEFVDSFKK-amide (SEQ ID 4) served as protein receptor and tracer ligand respectively. The recombinant BCL-XL protein (expressed in Ecol) was purchased from BPS Bioscience (San Diego, Calif., USA). The Bad BH3-derived peptide can be obtained from e.g. Biosyntan (Berlin, Germany).
In the assay 11 different concentrations of each compound (0.1 nM, 0.33 nM, 1.1 nM, 3.8 nM, 13 nM, 44 nM, 0.15 μM, 0.51 μM, 1.7 μM, 5.9 μM and 20 μM) were typically measured as duplicates in the same microtiter plate. For that, 100-fold concentrated DMSO solutions were prepared by serial dilutions (1:3.4) of a 2 mM stock solution in a clear, 384-well microtiter plate (Greiner Bio-One, Frickenhausen, Germany). From there, 50 nl were transferred in a dark test plate (Greiner Bio-One, Frickenhausen, Germany). The assay was initiated by addition of 2 μl of a 2,5-fold concentrated His-BCL-XL solution (usually for a 1 nM end concentration in 5 μl reaction volume) in aqueous assay buffer [50 mM Tris/HCl pH 7, 100 mM sodium chloride (NaCl), 50 μM potassium fluoride (KF), 0.005% Tween-20, 2 mM DTT, 0.1% bovine gamma globulin (BGG)] to the compounds in the assay plate. This was followed by a 10-minute incubation step at 22° C. for pre-equilibration of the putative complex between His-BCL-XL and the compounds. After that, 3 μl of a 1.67-fold concentrated solution (in assay buffer) consisting of Bad BH3-derived peptide (1 nM end concentration) and TR-FRET detection reagents [1.67 nM anti-His-Eu cryptate and 1.67 nM streptavidin-XL665 (both from Cisbio Bioassays, Codolet, France)], were added.
The mixture was incubated in the dark for one hour at 22° C. and then overnight at 4° C. The formation of BCL-XL/Bad complexes was determined by measuring the resonance energy transfer of the anti-His-Eu-cryptate antibody to the streptavidin-XL665 present in the reaction. For that purpose, the fluorescence emission at 620 nm and 665 nm after excitation at 330-350 nm was measured in a TR-FRET measuring instrument, for instance a Rubystar or a Pherastar (both from BMG Lab Technologies, Offenburg, Germany) or a Viewlux (Perkin-Elmer). The ratio of the emission at 665 nm and at 622 nm was used as indicator of the amount of BCL-XL/Bad complexes present.
The resulting data (ratio) were normalized, taking 0% inhibition as the mean value of control measurements (usually 32 data points) where all reagents were included. In this case 50 nl DMSO were used instead of compounds. A 100% inhibition corresponded to the mean value of control measurements (usually 32 data points) where all reagents except BCL-XL were included. IC50 values were determined by regression analysis based on a 4 parameter equation (minimum, maximum, IC50, Hill; Y=Max+(Min−Max)/(1+(X/IC50)^Hill) using the Screener Software (Genedata).

SUDHL10 [2] = test: Induction of cytotoxicity, SUDHL10 (Assay 6); conditions: Homo sapiens, SU-DHL10, 5 h, read-out: IC50 Cytotox SUDHL10 [M] (median), SUDHL10 cells, 5 h, CellTiter-Glo
Method: In principle, compounds that induce apoptosis will concomitantly induce cell cytotoxicity. Therefore, cytotoxicity assays were run in parallel in SUDHL5 and SUDHL10 cells.
The different cell lines were plated in culture medium (RPMI 1640 [GIBCO #22400-089] supplemented with 10% Fetal Bovine Serum) at a density of 3,300 cells in 30 μl/well in a sterile, solid black, flat bottom, polystyrene, TC-treated 384-well microplate (Corning #3571) using Multidrop Combi Reagent Dispenser. As a control, medium without cells was also added to the plate. Cells were incubated in a humidified incubator at 37° C. overnight. On the next day, the cells were treated with compounds (stock solution, 10 mM in DMSO) using the HP D300 Digital Dispenser in a concentration range of 3.3×10e-5 M (33 μM) to 5×10e-9 M (5 nM) in a single-dot curve with at least 16 dilutions and a DMSO concentration of 0.33%. Rim wells were excluded. The cells were incubated for 5 h hours in a humidified incubator at 37° C. After this incubation, 30 μl of CellTiter-Glo® Luminescent Cell Viability reagent (Promega, G7573) was added to each well using the Multidrop Combi Reagent Dispenser, followed by 15 min incubation on a shaker at room temperature. Finally, luminescence was read at 0.1 ms, with a gain of 3000 using the PHERAstar FS microplate reader (BMG Labtech).
The Bella DRC Master Sheet was used to calculate IC50s, with fixed CI=0 and C0=1.

Sequence of BCL-XL (Q07817 1-212): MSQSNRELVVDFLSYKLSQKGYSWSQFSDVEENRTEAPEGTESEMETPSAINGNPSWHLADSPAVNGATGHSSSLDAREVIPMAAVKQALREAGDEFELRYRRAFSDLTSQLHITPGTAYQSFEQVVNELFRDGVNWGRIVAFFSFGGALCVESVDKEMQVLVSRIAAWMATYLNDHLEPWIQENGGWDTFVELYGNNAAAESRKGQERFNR

| SMILES | EC50 (SUDHL10 [1]) [µM] | IC50 (SUDHL5) [M] | IC50 (BCL-XL) [µM] | IC50 (SUDHL10 [2]) [M] |
| --- | --- | --- | --- | --- |
| CCc1c2c(nn1C)CN(C)CCCCn1c(C(=O)O)c(CCCOc3cccc4c3CCC4)c3ccc(F)c-2c31 (racemic) [Example 51, (rac)-7-[3-(2,3-dihydro-1H-inden-4-yloxy)propyl]-3-ethyl-4-fluoro-2,14-dimethyl-10,11,12,13,14,15-hexahydro-2H-pyrazolo[3′,4′:8,9][1,6]diazacycloundecino[10,11,1-hi]indole-8-carboxylic acid] | 0.44 | 2.6e-07 | > 20 | 3.6e-07 |
| CCc1nn(C)c2c1-c1c(F)ccc3c(CCCOc4cccc5ccccc45)c(C(=O)O)n(c13)C/C=C\COC2 (racemic) [Example 11, (rac)-(Z)-12-ethyl-13-fluoro-10-methyl-1-(3-(naphthalen-1-yloxy)propyl)-4,7,9,10-tetrahydro-pyrazolo[4′,3′:9,10][1]oxa[6]azacycloundecino[8,7,6-hi]indole-2-carboxylic acid] | 6.5 | 2.8e-06 | > 20 | 7.2e-06 |
| CCc1c2c(nn1C)CN(C)CCCCn1c(C(=O)O)c(CCCOc3cccc4c3CCCC4)c3ccc(F)c-2c31 (racemic) [Example 52, (rac)-3-ethyl-4-fluoro-2,14-dimethyl-7-[3-(5,6,7,8-tetrahydronaphthalen-1-yloxy)propyl]-10,11,12,13,14,15-hexahydro-2H-pyrazolo[3′,4′:8,9][1,6]diazacycloundecino[10,11,1-hi]indole-8-carboxylic acid] | 0.21 | 2.3e-07 | > 20 | 3.1e-07 |
| CCc1c2c(nn1C)CN(C)CCCCn1c(C(=O)O)c(CCCOc3cccc4ccccc34)c3ccc(F)c-2c31 (racemic) [Example 54, (rac)-3-ethyl-4-fluoro-2,14-dimethyl-7-[3-(1-naphthyloxy)propyl]-10,11,12,13,14,15-hexahydro-2H-pyrazolo[3′,4′:8,9][1,6]diazacycloundecino[10,11,1-hi]indole-8-carboxylic acid] | 0.68 | 4.4e-07 | > 20 | 1.4e-06 |
| Cc1nn(C)c2c1-c1c(F)ccc3c(CCCOc4cccc5ccccc45)c(C(=O)O)n(c13)C/C=C\COC2 (racemic) [Example 9, (rac)-(Z)-13-fluoro-10,12-dimethyl-1-(3-(naphthalen-1-yloxy)propyl)-4,7,9,10-tetrahydro-pyrazolo[4′,3′:9,10][1]oxa[6]azacycloundecino[8,7,6-hi]indole-2-carboxylic acid] | 18 | 3.7e-06 | > 20 | 1.5e-05 |
| CCc1c2c(nn1C)COC/C=C\Cn1c(C(=O)O)c(CCCOc3cccc4ccccc34)c3ccc(F)c-2c31 (racemic) [Example 5, (rac)-(11Z)-3-ethyl-4-fluoro-2-methyl-7-[3-(naphthalen-1-yloxy)propyl]-2,10,13,15-tetrahydro-pyrazolo[4′,3′:9,10][1,6]oxazacycloundecino[8,7,6-hi]indole-8-carboxylic acid] | 3.5 | 1.7e-06 | > 20 | 3.2e-06 |

More lines, main results first:

| EC50 (SUDHL10 [1]) [µM] | IC50 (SUDHL5) [M] | IC50 (BCL-XL) [µM] | SMILES | IC50 (SUDHL10 [2]) [M] |
| --- | --- | --- | --- | --- |
| 20 | 6e-06 | > 20 | Cc1nn(C)c2c1-c1c(F)ccc3c(CCCOc4cccc5c4CCC5)c(C(=O)O)n(c13)CCCCOC2 (racemic) [Example 35, (rac)-1-(3-((2,3-dihydro-1H-inden-4-yl)oxy)propyl)-13-fluoro-10,12-dimethyl-4,5,6,7,9,10-hexahydropyrazolo[4′,3′:9,10][1]oxa[6]azacycloundecino[8,7,6-hi]indole-2-carboxylic acid] | 1.5e-05 |
| 12 | 3.2e-06 | > 20 | Cc1cc(OCCCc2c(C(=O)O)n3c4c(c(F)ccc24)-c2c(C)nn(C)c2COCCCC3)cc(C)c1Cl (racemic) [Example 36, (rac)-1-(3-(4-chloro-3,5-dimethylphenoxy)propyl)-13-fluoro-10,12-dimethyl-4,5,6,7,9,10-hexahydropyrazolo[4′,3′:9,10][1]oxa[6]azacycloundecino[8,7,6-hi]indole-2-carboxylic acid] | 9e-06 |
| 9.1 | 3e-06 | > 20 | Cc1nn(C)c2c1-c1c(F)ccc3c(CCCOc4ccc(F)c5ccccc45)c(C(=O)O)n(c13)CCCCOC2 (racemic) [Example 33, (rac)-13-fluoro-1-(3-((4-fluoronaphthalen-1-yl)oxy)propyl)-10,12-dimethyl-4,5,6,7,9,10-hexahydropyrazolo[4′,3′:9,10][1]oxa[6]azacycloundecino[8,7,6-hi]indole-2-carboxylic acid] | 8.4e-06 |
| 7.2 | 1.6e-06 | > 20 | CCc1nn(C)c2c1-c1c(F)ccc3c(CCCOc4cccc5ccccc45)c(C(=O)O)n(c13)CCCCOC2 (racemic) [Example 37, (rac)-12-ethyl-13-fluoro-10-methyl-1-(3-(naphthalen-1-yloxy)propyl)-4,5,6,7,9,10-hexahydro-pyrazolo[4′,3′:9,10][1]oxa[6]azacycloundecino[8,7,6-hi]indole-2-carboxylic acid] | 4.8e-06 |
| 7.8 | 1.8e-06 | > 20 | Cc1nn(C)c2c1-c1c(F)ccc3c(CCCOc4cccc5ccccc45)c(C(=O)O)n(c13)CCCCOC2 (racemic) [Example 10, (rac)-13-fluoro-10,12-dimethyl-1-(3-(naphthalen-1-yloxy)propyl)-4,5,6,7,9,10-hexahydro-pyrazolo[4′,3′:9,10][1]oxa[6]azacycloundecino[8,7,6-hi]indole-2-carboxylic acid] | 3.6e-06 |
| 5.8 | 5.3e-07 | > 20 | Cc1c2c(nn1C)COCCCCn1c(C(=O)O)c(CCCOc3ccc(F)c4ccccc34)c3ccc(F)c-2c31 (racemic) [Example 15, (rac)-13-fluoro-1-(3-((4-fluoronaphthalen-1-yl)oxy)propyl)-11,12-dimethyl-4,5,6,7,9,11-hexahydropyrazolo[4′,3′:9,10][1]oxa[6]azacycloundecino[8,7,6-hi]indole-2-carboxylic acid] | 3e-06 |
| 2.5 | 9e-07 | > 20 | Cc1c2c(nn1C)COC/C=C\Cn1c(C(=O)O)c(CCCOc3cccc4ccccc34)c3ccc(F)c-2c31 (racemic) [Example 1, (rac)-(11Z)-4-fluoro-2,3-dimethyl-7-[3-(naphthalen-1-yloxy)propyl]-2,10,13,15-tetrahydro-pyrazolo[4′,3′:9,10][1,6]oxazacycloundecino[8,7,6-hi]indole-8-carboxylic acid] | 3.8e-06 |
| 4 | 1.1e-06 | > 20 | Cc1cc(OCCCc2c(C(=O)O)n3c4c(c(F)ccc24)-c2c(nn(C)c2C)COCCCC3)cc(C)c1Cl (racemic) [Example 20, (rac)-1-(3-(4-chloro-3,5-dimethylphenoxy)propyl)-13-fluoro-11,12-dimethyl-4,5,6,7,9,11-hexahydropyrazolo[4′,3′:9,10][1]oxa[6]azacycloundecino[8,7,6-hi]indole-2-carboxylic acid] | 2.6e-06 |
